Data on one molecule can be found in US20240254108A1, “COMPOUND COMPRISING PYRROLIDINE AS LINKER, AND PHARMACEUTICAL COMPOSITION COMPRISING SAME” (BEAD TECH INC., priority 2021, published 2024).

The assay deals with factors (genes) causing atopic dermatitis. Put plainly: Expression of atopic dermatitis factors (genes) in skin of DNFB-treated mice, real time PCR (Experimental Example 4). Particulars: RNA from skin of DNFB-treated female BALB/C mice, compound 100 μM on skin once a day to day 16; FIGS. 9 to 12. It is filed as in vivo. The method, then: For real time PCR, RNA was extracted using RNAiso Plus (TAKARA, Japan) and cDNA was synthesized using a cDNA synthesis kit (TAKARA, JAPAN). The polymerization reaction was carried out using the synthesized cDNA and a Sybr green kit (Enzynomics, Korea). […]
(Real-time PCR tracks product formation cycle by cycle.)

With `NC(=O)[C@H](Cc1c[nH]cn1)NC(=O)[C@H]1CCCN1C(=O)c1cccc(O)c1O` [Example 18], the “expression of the factors (genes) causing atopic dermatitis” value is “reduce the expression of the factors (genes)”.
